Non-standard residues stand in square brackets, D forms with d. Residues, ends and D or L forms follow the SMILES beside them. *: point of attachment. Sta = CC(C)C[C@H](N)[C@@H](O)CC(=O)O; Isovaleryl = CC(C)CC(=O)*
Assays:
[1] = system: peptidase of the present invention; format: biochemical, Saccharomyces cerevisiae; set-up: key to Inhibition: - indicates that the reaction was not inhibited; conditions: for Inhibition: pH 4
[2] = system: enzyme of the present invention; experiment: Substrate specificity of enzyme (percentage of cleaved substrate by HPLC); format: biochemical, Saccharomyces cerevisiae; conditions: 24 hours at 30°C in 0.05 M acetate buffer (pH 4.0); DEAE-Sephacel fraction eluted with 0.2 M NaCl
α-MF = α-MF produced at a level of several µg/ml; reacted for 24 hours; prior-art culture activity; cited from earlier work

O=S(=O)(F)Cc1ccccc1 [PMSF, phenylmethylsulfonyl fluoride]
Response to inhibitor (inhibition of the enzyme, in words) [1]: inhibited neither
Inhibition [1]: -

C[C@@H](O)[C@H](N)C(=O)N[C@@H](CCCCN)C(=O)N1CCC[C@H]1C(=O)N[C@@H](CCCNC(=N)N)C(=O)O [tuftsin, Thr - Lys - Pro - Arg] (H-TKPR-OH)
% Cleavage [2]: 0%

Trp - His - Trp - Leu - Gln - Leu - Lys - Pro - Gly - Gln - Pro - Met - Tyr [α-MF]
% Cleavage [2]: not less than 90%
α-MF cleaved (α-MF): about 50%

Cc1ccc(S(=O)(=O)N[C@@H](CCCCN)C(=O)CCl)cc1 [TLCK, tosyl - L - lysine chloromethyl ketone]
Response to inhibitor (inhibition of the enzyme, in words) [1]: inhibited neither
Inhibition [1]: -

CC(=O)N[C@@H](CC(C)C)C(=O)N[C@@H](CC(C)C)C(=O)N[C@H](C=O)CCCNC(=N)N [Leupeptin, leupeptin]
Response to inhibitor (inhibition of the enzyme, in words) [1]: inhibited neither
Inhibition [1]: -

CC(C)CC(=O)N[C@H](C(=O)N[C@H](C(=O)N[C@@H](CC(C)C)[C@@H](O)CC(=O)N[C@@H](C)C(=O)N[C@@H](CC(C)C)[C@@H](O)CC(=O)O)C(C)C)C(C)C [Pepstatin, pepstatin] (Isovaleryl-VV[Sta]A[Sta]-OH)
Response to inhibitor (inhibition of the enzyme, in words) [1]: not inhibited
Inhibition [1]: -

Tyr - Gly - Gly - Phe - Met - Thr - Ser - Glu - Lys - Ser - Gln - Thr - Pro - Leu - Val - Thr - Leu [β-endorphin]
% Cleavage [2]: 0%

Ser - Leu - Arg - Arg - Ser - Ser - Cys - Phe - Gly - Gly - Arg - Met - Asp - Arg - Ile - Gly - Ala - Gln - Ser - Gly - Leu - Gly - Cys - Asn - Ser - Phe - Arg - Tyr [α-hamp]
% Cleavage [2]: 0%

pGlu - Leu - Tyr - Glu - Asn - Lys - Pro - Arg - Arg - Pro - Tyr - Ile - Leu [neurotensin]
% Cleavage [2]: 0%

Trp - Gly - Gly - Phe - Leu - Arg - Arg - Ile - Arg - Pro - Lys - Leu - Lys - Trp - Asp - Asn - Gln [dynorphin]
% Cleavage [2]: not less than 90%

O=C(O)CI [monoiodoacetic acid]
Response to inhibitor (inhibition of the enzyme, in words) [1]: inhibited neither
Inhibition [1]: -*

Ser - Glu - Glu - Pro - Pro - Ile - Ser - Leu - Asp - Leu - Thr - Phe - His - Leu - Leu - Arg - Glu - Val - Leu - Glu - Met - Ala - Arg - Ala - Glu - Gln - Leu - Ala - Gln - Gln - Ala - His - Ser - Asn - Arg - Lys - Leu - Met - Glu - Ile - Ile - NH2 [CRF]
% Cleavage [2]: 0%

Cys - Tyr - Ile - Gln - Asn - Cys - Pro - Leu - Gly - NH2 [oxytocin]
% Cleavage [2]: 0%

O=C(O)c1cc[c]([Hg][Cl])cc1 [PCMB, p-chloro-mercuribenzoic acid]
Response to inhibitor (inhibition of the enzyme, in words) [1]: inhibited neither
Inhibition [1]: -

O=C(O)CN(CCN(CC(=O)O)CC(=O)O)CC(=O)O [EDTA]
Response to inhibitor (inhibition of the enzyme, in words) [1]: not inhibited
Inhibition [1]: -
